Source: patent publication US9441014B2, “Skin permeating and cell entering (SPACE) peptides and methods of use thereof” (The Regents of the University of California, priority 2010, dated 2016)
Read-outs that look alike come from different tables or passages of the source. Blank lines part the entries; values can stand above or below the compound they belong to. Residues, ends and D or L forms follow the SMILES beside them.

Columns and labels:
[1] = test system: green fluorescent protein (GFP) in GFP-expressing endothelial cells; test: GFP knockdown in GFP-expressing endothelial cells; assay type: cell-based
Experimental: GFP-expressing endothelial cells (ATCC) were grown in Dulbecco's Modified Eagle's Medium supplemented with 10% fetal bovine serum. GFP siRNA, 5′-GACGUAAACGGCCACAAGUUC N6-3′ (SEQ ID NO:26) (Dharmacon), was conjugated to fluorescently labeled peptide (containing a free carboxyl group) through EDC chemistry.
A 10 mM peptide solution was incubated with a 10 mM solution of N-(3-Dimethylaminopropyl)-N′-ethylcarbodiimide hydrochloride (EDAC, Sigma) and a 9.5 mM solution of N-Hydroxysulfosuccinimide sodium salt (NHS, Sigma) in equal parts in MES buffer (pH 5.5) for 15 minutes. The amine modified siRNA was then added to the mixture to conjugate the peptide to siRNA and allowed to mix overnight.
The peptide-siRNA complex was added to the appropriate cell culture media to obtain a final concentration of 1 μM siRNA. The media along with peptide-siRNA was then added to the cells and allowed to incubate for 48 hours. Cells were imaged using confocal microscopy and image analysis was performed using ImageJ to determine the overall fluorescence intensity for each cell.

human skin = test: Peptide penetration in human skin (confocal microscopy); assay type: in vitro ADME
Experimental: The ability of the SPACE peptide to penetrate human skin when removed from phage and conjugated to an exemplary small molecule in the form of a fluorescent tag was tested as follows. Full thickness human skin was obtained from the National Disease Research Interchange. […] Fluorescently labeled peptides, 200 μL of a 1 mg/mL solution, were placed in the donor compartment of the FDC. After 24 hours, the remaining solution in the donor compartment was removed and the FDC was dismantled. The skin sample was retrieved and rinsed with DI water to remove excess peptide or peptide complex on the surface of the skin.

mouse skin = test: Peptide penetration into mouse skin in-vivo
Experimental: The ability of the SPACE peptide to penetrate mouse skin in-vivo was tested as follows. 200 μl of fluorescently labeled peptide (1 mg/ml) was applied on the skin of a mouse. Penetration was assessed at various time points by harvesting the skin, sectioning it and observing under a microscope.

porcine skin [2] = test: Inulin permeability of porcine skin after co-incubation with peptide; assay type: in vitro ADME
human keratinocytes = test: MTT assay on keratinocyte cultures; assay type: cell-based; conditions: 0.1-1.0 mg/mL
Experimental: (a) Peptide internalization (percent of control) for control peptide and SPACE peptide at 4° C. and with the endocytosis inhibitors deoxy-D-glucose, chlorpromazine, nystatin, and EIPA in human keratinocytes. (b) Cell proliferation of human keratinocytes in the presence of control peptide (open bars) or SPACE peptide (closed bars) at 0.1 mg/mL and 1.0 mg/mL. Error cars indicate SD (N=4).

porcine skin [3] = test: Peptide penetration into porcine skin (confocal microscopy); assay type: in vitro ADME; conditions: 200 μL of 1 mg/mL, 24 hours
Experimental: The ability of the SPACE peptide to penetrate porcine skin when removed from phage was tested as follows. Full thickness porcine skin was obtained and prepared as described above. Fluorescently labeled peptides, 200 μL of a 1 mg/mL solution, were placed in the donor compartment of the FDC. After 24 hours, the remaining solution in the donor compartment was removed and the FDC was dismantled. The skin sample was retrieved and rinsed with DI water to remove excess peptide or peptide complex on the surface of the skin.

porcine skin [4] = assay type: in vitro ADME
Experimental: The ability of the SPACE peptide to carry macromolecular cargos across the SC was tested as follows. Full thickness porcine skin was obtained and prepared as described above. The peptide was first conjugated to the macromolecule as described in greater detail below and then the peptide-macromolecule complex was placed into the donor compartment of the FDC. After 24 hours, the remaining solution in the donor compartment was removed and the FDC was dismantled. The skin sample was retrieved and rinsed with DI water to remove excess peptide complex on the surface of the skin.
To conjugate the peptide to the macromolecule streptavidin, 80 μL of a 1 mg/mL biotinylated peptide solution was incubated with 20 μL of a 2 mg/mL streptavidin-Alexa Fluor 488 conjugate (Invitrogen) solution and incubated at room temperature for 30 minutes. The resulting solution was then placed into the donor compartment of the FDC. Skin samples were harvested after 24 hours and imaged as described above.
The ability of the SPACE peptide to carry quantum dots across the SC was also tested. For the delivery of quantum dots into the skin, 198 μL of a 100 ng/mL biotinylated peptide solution was incubated with 2 μL of QDot 525 streptavidin conjugate (Invitrogen) for 1 hour at room temperature. The 200 μL suspension was then placed into the donor compartment of the FDC. […]

Compound: 5′-GACGUAAACGGCCACAAGUUC N6-3′ (GACGUAAACGGCCACAAGUUC; siRNA; 3' N6 group, conjugated to fluorescently labeled peptide by EDC chemistry, further chemistry not given here) [siRNA alone, GFP siRNA (Dharmacon)]
knockdown of GFP ([1]; 1 μM siRNA, 48 hours): no significant knockdown
knockdown of GFP when complexed with Lipofectamine ([1]; complexed with Lipofectamine, compared to no siRNA treatment): knockdown was significant

penetration into mouse skin in vivo after 30 minutes (mouse skin; mouse, in vivo): resulted in penetration
effect on inulin permeability (porcine skin [2]): only a modest increase
Compound: C[C@H](N)C(=O)N[C@H]1CSSC[C@@H](C(=O)NCC(=O)O)NC(=O)[C@H](CCC(N)=O)NC(=O)[C@H](Cc2c[nH]cn2)NC(=O)[C@H](CCC(N)=O)NC(=O)[C@H]([C@@H](C)O)NC(=O)[C@H](CO)NC(=O)CNC(=O)[C@H]([C@@H](C)O)NC1=O [SPACE peptide] (HELM PEPTIDE1{A.C.T.G.S.T.Q.H.Q.C.G}$PEPTIDE1,PEPTIDE1,2:R3-10:R3$$$V2.0; N-terminus and C-terminus assumed)
penetration/localization in human skin observed from the top (human skin): high localization of the SPACE peptide within the corneocytes
penetration into mouse skin in vivo after two hours (mouse skin; mouse, in vivo): significant penetration into the skin and localization in the deep dermis
toxicity to cells (MTT) (human keratinocytes): not toxic

penetration of fluorescently labeled peptide into porcine skin (porcine skin [3]): No significant penetration
penetration/localization in human skin observed from the top (human skin; top view looking down on SC, 24 hours): no significant penetration
penetration into mouse skin in vivo (mouse skin; 200 μl of 1 mg/ml topical): lack of skin penetration in vivo
Compound: C[C@H](N)C(=O)N[C@H]1CSSC[C@@H](C(=O)NCC(=O)O)NC(=O)[C@H](CO)NC(=O)[C@H](CCC(N)=O)NC(=O)[C@H]([C@@H](C)O)NC(=O)[C@H](CCC(N)=O)NC(=O)CNC(=O)[C@H](Cc2c[nH]cn2)NC(=O)[C@H]([C@@H](C)O)NC1=O [control peptide] (HELM PEPTIDE1{A.C.T.H.G.Q.T.Q.S.C.G}$PEPTIDE1,PEPTIDE1,2:R3-10:R3$$$V2.0; N-terminus and C-terminus assumed)

Compound: Streptavidin not conjugated to SPACE peptide: streptavidin-Alexa Fluor 488 conjugate (Invitrogen) alone
penetration of Alexa Fluor 488 streptavidin into porcine skin (porcine skin [4]): minimal penetration into epidermis
